Experimental data taken from PMC6755732, “Structural, Biochemical, and In Vivo Characterization of MtrR-Mediated Resistance to Innate Antimicrobials by the Human Pathogen Neisseria gonorrhoeae” (Journal of Bacteriology, 2019).
Where two headings read alike, the source gives them in different places.

Tests used:
MtrR-mtrCDE promoter = molecular target: T1, MtrR-mtrCDE promoter (Neisseria gonorrhoeae, UniProt P39897); assay type: biochemical; conditions: versus no bile salt
T1 construct: nearly all 210 residues of each protomer observed, with the exception of residues 1 through 7; hexahistidine tag (thrombin-cleavable) (cleaved yes); made in house
T1 sequence (P39897 whole entry): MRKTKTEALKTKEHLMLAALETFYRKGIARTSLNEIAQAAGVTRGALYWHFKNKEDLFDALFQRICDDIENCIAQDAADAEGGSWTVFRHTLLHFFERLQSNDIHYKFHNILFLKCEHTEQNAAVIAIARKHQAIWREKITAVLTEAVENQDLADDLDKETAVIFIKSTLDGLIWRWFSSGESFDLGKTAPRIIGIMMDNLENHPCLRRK
Description: Thus, to rule out any effect of alkaline pH on MtrR-DNA interactions, we buffered the CAPS used in the FP assay to pH 8.0 before testing its effect on DNA binding.
Fluorescence polarization-based DNA binding experiments were performed with a Panvera Beacon 2000 fluorescence polarization system (Invitrogen) utilizing 5′-fluorescein-labeled DNA. Polarization (P) of such 5′-labeled DNA increases as a function of protein binding, and equilibrium dissociation constants are determined by curve fitting the values of millipolarization (P × 10^−3) units against the protein concentration. To determine the effects of various ligands on MtrR-DNA binding, 1 nM 5′-fluoresceinated oligodeoxynucleotide duplexes containing the mtrC operator site in 1 ml binding buffer (20 mM Tris HCl [pH 8.0], 100 mM NaCl, and 2.5% glycerol) were titrated against increasing concentrations of purified MtrR in the presence or absence of the indicated concentrations of bile salt, and the resulting changes in polarization were measured. All the samples were excited at 490 nm, and their polarized emissions were measured at 530 nm. All the data were plotted using Kaleidagraph (Synergy Software) and Prism (GraphPad Software), and the resulting plots were fitted to the following equation: P = {(Pbound − Pfree)[protein]/(KD + [protein])} + Pfree, where P is the polarization measured at a given protein concentration, Pfree is the initial polarization of the free ligand, Pbound is the maximum polarization of specifically bound ligand, KD is the equilibrium dissociation constant, and [protein] is the protein concentration. Nonlinear least-squares analysis was used to determine Pbound, and Kd. The reported binding constants are the average values from at least three independent experimental measurements.

[1] = test system: mtrCp-lacZ in JF1 (FA19 ΔmtrR); assay type: cell-based, Neisseria gonorrhoeae
Description: (§1) To determine if sublethal concentrations of bile salts could relieve MtrR-mediated repression of mtrC (and, by inference, the mtrCDE operon), a translational fusion of the promoter region of mtrC to lacZ was used. This fusion system was made in the wild-type (FA19) background ([41]) and cloned into mtrR deletion mutant strain JF1. Using the mtrCp-lacZ fusion, the β-galactosidase activity of the strains grown in the presence or absence of the bile salt chenodeoxycholate, taurodeoxycholate, or glycocholate was measured. The β-galactosidase levels were determined from strains grown overnight on GC agar supplemented with the bile salt at concentrations 4-fold below their specific MICs to ensure that the concentration of each bile salt was in the same biological range (the bile salt concentrations are listed in Table 2).
N. gonorrhoeae strains FA19 (wild type) and JF1 (FA19 ΔmtrR) containing a translational mtrCp-lacZ fusion with the proAB locus were used to assess the ability of bile salts to induce mtrC expression; the construction of these strains has been described previously ([41]). The MIC of bile salts for each strain used in the β-galactosidase assay was determined using a 2-fold agar dilution method ([32]). […]

MtrR = molecular target: T2, MtrR (Neisseria gonorrhoeae, UniProt P39897); assay: Isothermal titration calorimetry, wild-type MtrR with bile salts; assay type: binding; conditions: ITC, 25°C, 20 μM MtrR in cell, 250 μM ligand in syringe
T2 construct: A codon optimized gene of MtrR was synthesized by GenScript and cloned into the; hexahistidine tag with TEV protease site (N, cleaved yes); made in house
T2 sequence (P39897 whole entry): as above
Description: Purified MtrR was dialyzed extensively against buffer containing 20 mM Tris [pH 8.0], 200 mM NaCl, 10% glycerol, and 1 mM TCEP overnight at 4°C. The stock solutions and the necessary dilutions of the bile salts were prepared using this dialysis buffer. Titrations with 20 μM MtrR in the cell and 250 μM ligand in the syringe were performed using a VP-ITC microcalorimeter (Microcal Inc.). All measurements were conducted at 25°C with a stirring speed of 200 rpm. After subtraction of germane blank data, the titration data were analyzed using the program ORIGIN 5.0.
Protein purification for Isothermal Titration Calorimetry experiments and mutant […]
A codon optimized gene of MtrR was synthesized by GenScript and cloned into the pMCSG7 vector in- frame with the N-terminal Hexa- histidine tag and tobacco etch virus (TEV) protease cleavage site. This construct was used as the template for site- directed mutagenesis and to generate wild- type data in supplemental f igures 5-6 and Isothermal Titration Calorimetry data. This protein was overexpressed and purified as described in the “Materials and Methods” of the document, except the he xa -histidine tag MtrR was cleaved by TEV protease following NiNTA affinity chromatography. Cleaved MtrR was purified from tagged MtrR and cleaved hexa- histidine tag by Ni- NTA aff inity chromatography and then further purified by size exclusion chromatography (S200).

MtrR-DNA complex = molecular target: T3, MtrR-DNA complex (Neisseria gonorrhoeae, UniProt P39897); assay type: biochemical; conditions: EMSA, wild-type MtrR, mtrC promoter oligoduplex
T3 construct: nearly all 210 residues of each protomer observed, with the exception of residues 1 through 7; hexahistidine tag (thrombin-cleavable) (cleaved yes); made in house
T3 sequence (P39897 whole entry, one chain of several): as the sequence (P39897 whole entry) above
Description: To test the hypothesis that these bile salts directly bind to MtrR and potentially derepress gene expression by interfering with the DNA binding activity of MtrR, MtrR-mtrC promoter interactions were tested in the presence and absence of different concentrations of several bile salts. […] It is important to note that this is a competition assay that, due to its experimental design, requires the use of 3 μM DNA and 4 to 10 μM MtrR dimer. Consequently, this means that ∼99.9% of all DNA is MtrR bound.
Complementary oligodeoxynucleotides containing the MtrR binding site from the mtrC promoter (top strand, 5′-[sequence]-3′; an unusual pseudo-direct repeat is underlined) were annealed by heating an equimolar mixture of the top and bottom strands at 95°C for 5 min, followed by slow cooling to room temperature. Binding reactions were carried out in 20-μl volumes of binding buffer (20 mM Tris [pH 8.0], 200 mM NaCl, 10% glycerol, and 1 mM TCEP) containing 1 μg oligoduplex, 1 μg poly(dI-dC), and 4 to 10 μg MtrR. After a 20-minute incubation at room temperature, the preformed complex was incubated with or without various concentrations of selected bile salts at room temperature for an additional 10 min. […] The gels were stained with ethidium bromide and visualized and analyzed with an Alpha Innotech gel documentation instrument. The intensities of free DNA were measured with ImageJII ([61], [62]).

[2] = test system: mtrCp-lacZ in FA19 (wild type); assay: β-Galactosidase assay of mtrCp-lacZ fusion, strain FA19; assay type: cell-based, Neisseria gonorrhoeae
Description: as §1
N. gonorrhoeae strains FA19 (wild type) and JF1 (FA19 ΔmtrR) containing a translational mtrCp-lacZ fusion with the proAB locus were used to assess the ability of bile salts to induce mtrC expression; the construction of these strains has been described previously ([41]). The MIC of bile salts for each strain used in the β-galactosidase assay was determined using a 2-fold agar dilution method ([32]). Gonococci were grown overnight on GC agar (Difco Laboratories) supplemented with a bile salt (glycocholate, chenodeoxycholate, or taurodeoxycholate) at concentrations that were 4-fold below the MIC. After overnight growth at 37°C under 3.8% (vol/vol) CO2, the bacteria were scraped from the agar plate, resuspended in 1 ml phosphate-buffered saline (pH 7.4), and lysed by freeze-thawing three times, after which the cell debris was pelleted by centrifugation. The lysate was then used to determine β-galactosidase levels as described previously ([63]). All experiments were performed in triplicate with at least three biological replicates conducted on different days.

C[C@H](CCC(=O)NCC(=O)O)[C@H]1CC[C@H]2[C@@H]3[C@H](O)C[C@@H]4C[C@H](O)CC[C@]4(C)[C@H]3C[C@H](O)[C@]12C [Glycocholate, glycocholate] was tested, and the “Fold increase in Kd” value (MtrR-mtrCDE promoter; 1 mM bile salt) was 1.2, the “Fold increase in Kd” value (MtrR-mtrCDE promoter; 1 mM bile salt, listed as glycocholate) was “no effect” and the “Fold increase in Kd” value (MtrR-mtrCDE promoter; 5 mM bile salt) was 5. For the same molecule, the “Fold increase in Kd” value (MtrR-mtrCDE promoter; 10 mM bile salt) was 6, the “Fold increase of mtrCp-lacZ activity” value [1] was 2.11 (0.96) and the “Kd of bile salt binding to WT MtrR” value (MtrR) was “no measurable binding”. The “Concentration that disrupts the preformed MtrR-DNA complex” value (MtrR-DNA complex) was greater than 40 mM, the “MtrR-dependent derepression of the mtrC promoter” value ([2]; FA19 compared with ΔmtrR strain JF1, sublethal bile salt) was “failed to exhibit MtrR-dependent derepression” and the “Fold increase of mtrCp-lacZ activity” value ([2]; strain FA19, grown on GC agar with bile salt 4-fold below MIC versus normal agar, mM concentration in parentheses in the cell) was 1.43 (0.48).
